From patent US20240003914A1 (THE SCRIPPS RESEARCH INSTITUTE, priority 2020, published 2024)

How the values were obtained:
C57BL/6 mice = assay: Whole blood NAD levels after oral treatment; format: in vivo, mouse; details: 6 mg/kg SR005 or 100 mg/kg NAM, normalized by baseline (FIG. 8)
Excerpt: Blood was collected and NAD detected as described in FIGS. 1A-1C. NAD values were normalized by baseline level for each mouse. Each line represents data for one mouse.

NADases = assay: NAD protection from degradation by NADases in brain homogenate; format: biochemical, mouse; details: inhibitor added to aliquots of a brain sample after homogenisation; duplicate samples (FIG. 1F)
Method: Brain homogenates are disrupted and clarified by sonication (0.5 second per cycle, 45 cycles, 50% power) followed by centrifugation at 12,000 rpm, RT for 5 minutes. Supernatants are collected and fractionated using Amicon Ultra-2 centrifugal units with a 30 kDa cut-off. Flow-through is collected and NAD is measured using a cycling assay (NAD+/NADH-GloTM (Promega). The NAD+/NADH-GloTM assay is a bioluminescent, homogeneous assay for the detection of total NAD metabolite levels comprising the oxidized and reduced forms of NAD (NAD+ and NADH, respectively). An NAD cycling enzyme is used to convert NAD+ to NADH. In the presence of NADH, the provided reductase enzyme reduces a proluciferin reductase substrate to form luciferin. Luciferin is then quantified using Ultra-Glo recombinant luciferase, and the light signal produced is proportional to the amount of NAD+ and NADH in the sample. Cycling between NAD+ and NADH by the NAD cycling enzyme and reductase increases assay sensitivity and provides selectivity for nonphosphorylated NAD+ and NADH compared to the phosphorylated forms NADP+ and NADPH. Reading is performed between 10 and 50 minutes during the linear increase of the signal in a luminescence reader. NAD values are normalized by total protein concentrations. […] Error bars of duplicate samples are shown. […] Error bars of duplicate samples are shown.

SMILES | blood NAD levels after treatment (C57BL/6 mice) | NAD protection from degradation by NADases (NADases)
NC(=O)c1cccnc1 [NAM, nicotinamide] | Increased blood NAD levels | 
O=c1cc(-c2ccc(O)cc2)oc2cc(O)cc(O)c12 [apigenin] |  | absence of protection
